{"source": "patent US20170029388A1", "about": "“Treatment of Neurodegenerative Diseases with Asparagine Endopeptidase (AEP) Inhibitors and Compositions Related Thereto” (INTERCONTINENTAL GREAT BRANDS LLC, priority 2014, published 2017)", "key": {"[1]": {"settings": "human, microsomes"}, "[2]": {"settings": "mouse, microsomes"}, "Cathepsin-S": {"target": "T1, Cathepsin-S (Homo sapiens, UniProt P25774)", "T1 construct": "purchased Athens Research and Technology", "T1 sequence (P25774 115-331)": "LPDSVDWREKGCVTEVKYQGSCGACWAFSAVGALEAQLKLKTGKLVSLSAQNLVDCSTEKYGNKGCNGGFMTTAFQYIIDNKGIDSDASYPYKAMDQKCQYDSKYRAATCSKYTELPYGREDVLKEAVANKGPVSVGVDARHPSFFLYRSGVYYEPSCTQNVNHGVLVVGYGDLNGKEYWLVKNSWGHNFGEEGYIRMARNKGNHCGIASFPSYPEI", "experiment": "Cathepsin-S enzymatic assay (specificity)", "format": "biochemical", "method": "(§1) Purified recombinant enzyme was incubated with various concentrations of inhibitor in appropriate assay buffers in the presence of increasing concentrations of inhibitor. The formation of fluorescent product was monitored in duplicate reactions and the data was fit to appropriate equations to calculate the IC50 values.\n(§2) To identify small-molecule inhibitors of AEP, a high-throughput screen was designed in conjunction with the Emory Chemical Biology Discovery Center. The screen incorporated mouse kidney lysates to assay a 54,384 compound library. […] Additional structural analysis and grouping allowed the compounds to be sorted into 8 distinct backbone families. […] The specificity of the compounds was also determined using four major cysteine proteases (FIG. 2).\nCathepsin-S—100 nM enzyme was pre-incubated with inhibitor in assay buffer (100 mM NaH2PO4 pH 6.5, 100 mM NaCl) for 10 min at 37° C. The reaction was initiated upon addition of 25 μM substrate (Boc-Val-Leu-Lys-AMC (Bachem))."}, "HepG2 cells": {"tested_on": "HepG2 cells", "experiment": "COMET assay and micronucleus assay (genotoxicity)", "format": "cell-based, human", "settings": "50 μM, 24 hr", "method": "A. MTT assay, in which 50 μM of each compound was incubated with HepG2 cells for 24 hrs. The compound-containing medium was removed and the cells were incubated with MTT solution for 3 hrs. Subsequently, the MTT solution was replaced with DMSO and the 0D570 was observed. B. LDH assay, in which 50 μM of each compound was incubated with primary culture neurons for 48 hrs. The media was then collected and incubated with LDH assay substrate for 30 min at room temp, in the dark. After the reactions were quenched, the 0D490 was observed. C. COMET assay results; 50 μM compound was incubated with HepG2 cells for 24 hrs. The cells were then added low-melt agarose and plated on microscope slides. The cells were lysed and the DNA was denatured and subject to electrophoresis. Finally, the DNA was stained with SYBR Green and 100 nuclei were counted for each sample, in each experiment; the experiment was performed in triplicate. […] Cells were fixed and nuclei were stained with DAPI and 1,000 cells were counted per sample; three independent experiments were performed.\nIn an effort to characterize the toxicity of the compounds, an MTT assay was performed using human hepatocellular carcinoma, HepG2 cells and primary culture neurons to monitor the cell viability. […] The cytotoxicity of the compounds in primary neuronal cultures was determined using an LDH assay to measure cytolysis (FIG. 4B). […]"}, "Caspase-3": {"target": "T2, Caspase-3 (Homo sapiens, UniProt P42574)", "T2 construct": "purchased Millipore", "T2 sequence (P42574 29-175 limits assumed, species assumed)": "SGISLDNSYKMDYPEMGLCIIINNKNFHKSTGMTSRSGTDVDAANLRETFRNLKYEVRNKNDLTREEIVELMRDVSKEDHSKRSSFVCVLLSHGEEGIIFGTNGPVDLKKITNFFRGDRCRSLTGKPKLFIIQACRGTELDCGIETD", "T2 sequence (P42574 176-277 limits assumed, species assumed)": "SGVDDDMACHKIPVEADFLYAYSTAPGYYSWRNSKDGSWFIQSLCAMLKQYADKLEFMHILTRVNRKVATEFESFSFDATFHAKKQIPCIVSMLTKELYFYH", "experiment": "Caspase-3 enzymatic assay (specificity)", "format": "biochemical", "method": "as §1, §2\n(§3) Caspase-3 and 8 —The enzyme was pre-incubated with inhibitor in assay buffer (100 mM HEPES pH 7.4, 0.1% CHAPS, 10% Sucrose) for 10 min at 37° C. The reaction was initiated upon addition of 25 μM substrate (Ac-Asp-Glu-Val-Asp-AMC (Bachem))."}, "Cathepsin-L": {"target": "Cathepsin-L (Homo sapiens, UniProt P07711)", "sequence (P07711 114-333, species assumed)": "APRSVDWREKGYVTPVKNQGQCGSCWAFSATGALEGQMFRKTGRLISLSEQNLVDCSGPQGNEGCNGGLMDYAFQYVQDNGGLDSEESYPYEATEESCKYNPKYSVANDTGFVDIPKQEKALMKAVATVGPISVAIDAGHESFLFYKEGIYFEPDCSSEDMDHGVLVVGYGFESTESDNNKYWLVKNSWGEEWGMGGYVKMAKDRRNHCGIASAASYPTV", "experiment": "Cathepsin-L enzymatic assay (specificity)", "format": "biochemical", "method": "as §1, §2\nCathepsin-L—100 nM enzyme was pre-incubated with inhibitor in assay buffer (100 mM Sodium Acetate pH 5.5, 1 mM EDTA) for 10 min at 37° C. The reaction was initiated upon addition of 25 μM substrate (D-Val-Leu-Lys-AMC (Bachem))."}, "Caspase-8": {"target": "T3, Caspase-8 (Homo sapiens, UniProt Q14790)", "T3 construct": "purchased Millipore", "T3 sequence (Q14790 217-374 limits assumed, species assumed)": "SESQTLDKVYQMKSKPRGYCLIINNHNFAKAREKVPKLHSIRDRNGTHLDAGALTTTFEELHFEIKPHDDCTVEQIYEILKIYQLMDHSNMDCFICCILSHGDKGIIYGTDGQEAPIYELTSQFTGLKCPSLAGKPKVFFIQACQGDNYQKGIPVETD", "T3 sequence (Q14790 385-479 limits assumed, species assumed)": "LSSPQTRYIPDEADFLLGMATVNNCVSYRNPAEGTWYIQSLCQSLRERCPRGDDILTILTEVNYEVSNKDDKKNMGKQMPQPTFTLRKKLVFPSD", "experiment": "Caspase-8 enzymatic assay (specificity)", "format": "biochemical", "method": "as §1, §2, §3"}, "Caco-2 monolayer": {"tested_on": "Caco-2 monolayer", "experiment": "Caco-2 monolayer permeability screen", "format": "in vitro ADME", "settings": "Caco-2", "quoted_text": "To explore the in vitro ADME profiles of the compounds, additional tests were conducted."}, "[3]": {"experiment": "Liver microsomal stability, mouse", "settings": "mouse liver microsomes"}, "CYP3A": {"tested_on": "CYP3A", "experiment": "CYP inhibition screening, CYP3A-Testosterone", "format": "in vitro ADME"}, "CYP3A4": {"target": "CYP3A4 (Homo sapiens, UniProt P08684)", "sequence (P08684 whole entry)": "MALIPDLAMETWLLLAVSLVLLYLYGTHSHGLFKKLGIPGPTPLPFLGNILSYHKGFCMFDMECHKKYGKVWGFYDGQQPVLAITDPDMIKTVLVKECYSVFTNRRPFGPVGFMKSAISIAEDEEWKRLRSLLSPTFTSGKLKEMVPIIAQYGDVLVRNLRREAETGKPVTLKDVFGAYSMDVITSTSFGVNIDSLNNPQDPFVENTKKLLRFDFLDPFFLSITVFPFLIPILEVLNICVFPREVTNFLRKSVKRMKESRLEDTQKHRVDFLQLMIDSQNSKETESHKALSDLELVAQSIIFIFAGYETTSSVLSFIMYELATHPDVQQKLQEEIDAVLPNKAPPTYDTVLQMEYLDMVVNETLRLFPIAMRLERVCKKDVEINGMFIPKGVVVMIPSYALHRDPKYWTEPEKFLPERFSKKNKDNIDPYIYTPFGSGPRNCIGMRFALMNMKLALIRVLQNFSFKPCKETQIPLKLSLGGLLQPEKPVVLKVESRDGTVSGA", "experiment": "CYP inhibition screening, CYP3A4-Midazolam", "format": "in vitro ADME"}, "CYP1A2": {"target": "T4, CYP1A2 (Homo sapiens, UniProt P05177)", "T4 sequence (P05177 1-516)": "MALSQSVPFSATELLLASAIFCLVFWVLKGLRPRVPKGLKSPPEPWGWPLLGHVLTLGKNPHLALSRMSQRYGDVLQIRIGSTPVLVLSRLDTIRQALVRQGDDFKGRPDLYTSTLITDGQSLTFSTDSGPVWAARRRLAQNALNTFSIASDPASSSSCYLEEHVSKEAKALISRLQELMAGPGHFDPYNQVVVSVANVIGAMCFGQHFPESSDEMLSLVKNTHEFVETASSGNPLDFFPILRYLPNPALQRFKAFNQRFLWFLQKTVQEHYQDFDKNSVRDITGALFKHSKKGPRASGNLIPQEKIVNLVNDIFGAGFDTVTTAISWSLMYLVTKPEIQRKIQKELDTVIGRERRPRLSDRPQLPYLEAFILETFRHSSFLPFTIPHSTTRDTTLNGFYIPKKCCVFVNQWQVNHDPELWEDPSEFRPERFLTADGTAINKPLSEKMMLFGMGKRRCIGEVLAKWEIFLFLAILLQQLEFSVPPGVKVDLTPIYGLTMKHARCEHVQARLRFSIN", "experiment": "CYP inhibition screening, CYP1A2", "format": "in vitro ADME"}, "CYP2D6": {"target": "CYP2D6 (Homo sapiens, UniProt P10635)", "sequence (P10635 whole entry)": "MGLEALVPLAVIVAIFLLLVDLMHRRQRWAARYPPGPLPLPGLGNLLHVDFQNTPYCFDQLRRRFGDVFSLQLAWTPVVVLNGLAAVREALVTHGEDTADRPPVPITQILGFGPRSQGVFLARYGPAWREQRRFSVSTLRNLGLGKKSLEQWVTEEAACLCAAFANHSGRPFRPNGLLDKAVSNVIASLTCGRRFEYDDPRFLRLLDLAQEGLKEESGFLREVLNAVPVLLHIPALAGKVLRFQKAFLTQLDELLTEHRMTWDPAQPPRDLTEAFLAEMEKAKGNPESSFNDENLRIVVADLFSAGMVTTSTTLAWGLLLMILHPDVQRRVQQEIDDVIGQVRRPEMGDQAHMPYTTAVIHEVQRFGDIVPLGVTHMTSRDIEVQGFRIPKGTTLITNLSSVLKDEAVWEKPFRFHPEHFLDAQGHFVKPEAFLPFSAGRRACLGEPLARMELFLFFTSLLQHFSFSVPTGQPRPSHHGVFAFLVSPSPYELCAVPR", "experiment": "CYP inhibition screening, CYP2D6", "format": "in vitro ADME"}, "CYP2C19": {"target": "CYP2C19 (Homo sapiens, UniProt P33261)", "sequence (P33261 whole entry)": "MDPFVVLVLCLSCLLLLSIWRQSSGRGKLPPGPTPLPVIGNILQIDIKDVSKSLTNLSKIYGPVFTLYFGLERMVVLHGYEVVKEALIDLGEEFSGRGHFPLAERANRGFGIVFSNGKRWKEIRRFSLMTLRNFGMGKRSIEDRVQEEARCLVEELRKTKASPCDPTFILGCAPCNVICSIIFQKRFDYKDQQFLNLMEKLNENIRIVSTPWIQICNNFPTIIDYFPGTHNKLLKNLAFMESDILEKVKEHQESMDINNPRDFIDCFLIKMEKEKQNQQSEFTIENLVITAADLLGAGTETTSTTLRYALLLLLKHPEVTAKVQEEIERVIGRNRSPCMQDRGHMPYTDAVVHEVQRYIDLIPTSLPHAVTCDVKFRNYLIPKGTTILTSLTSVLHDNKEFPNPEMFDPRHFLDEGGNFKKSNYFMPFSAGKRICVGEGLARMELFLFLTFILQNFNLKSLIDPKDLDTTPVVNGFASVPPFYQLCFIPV", "experiment": "CYP inhibition screening, CYP2C19", "format": "in vitro ADME"}, "AEP": {"tested_on": "AEP", "experiment": "Oxygen-glucose deprivation (OGD) in primary neurons, AEP activity", "format": "cell-based", "settings": "0.1 μM or 1.0 μM compound", "method": "(§4) A. AEP activity, measured in primary neuronal cultures with 5 μM Cbz-Ala-Ala-Asn-AMC (x-axis denotes neurons were treated with 0.1 μM or 1.0 μM specified compound). B. Caspase activity, measured in primary neuronal cultures with 5 μM Ac-Asp-Glu-Val-Asp-AMC. C. Cathepsin activity, measured in primary neuronal cultures with 5 μM D-Val-Leu-Lys-AMC. D. Inhibition of APP cleavage. Lysates of primary cortical neurons pre-incubated with compounds for 30 min, underwent OGD for 4 hrs, were reperfused for 18 hrs (normoxia neurons remained at normoxic conditions). E. APP can be cleaved in a dose-dependent manner. Lysates of primary cortical neurons pre-incubated with compounds for 30 min, underwent OGD for 4 hrs, were reperfused for 18 hrs (normoxia neurons remained at normoxic conditions).\nDepriving cells of oxygen and glucose is a cellular model that is employed to trigger acidosis in cultured cells. The efficacy of the compounds in a cellular model of oxygen-glucose deprivation (OGD) was determined in an effort to mimic the effects of stroke in primary cultured neurons. As a result of depriving neurons of oxygen and glucose-containing medium, AEP activity was doubled (FIG. 7A, ‘DMSO-Norm’ compared to ‘DMSO-OGD’), while Caspase-3 and Cathepsin activities remained relatively unchanged. […]"}, "[4]": {"experiment": "Liver microsomal stability, human", "settings": "human liver microsomes"}, "CYP2C9": {"target": "CYP2C9 (Homo sapiens, UniProt P11712)", "sequence (P11712 whole entry)": "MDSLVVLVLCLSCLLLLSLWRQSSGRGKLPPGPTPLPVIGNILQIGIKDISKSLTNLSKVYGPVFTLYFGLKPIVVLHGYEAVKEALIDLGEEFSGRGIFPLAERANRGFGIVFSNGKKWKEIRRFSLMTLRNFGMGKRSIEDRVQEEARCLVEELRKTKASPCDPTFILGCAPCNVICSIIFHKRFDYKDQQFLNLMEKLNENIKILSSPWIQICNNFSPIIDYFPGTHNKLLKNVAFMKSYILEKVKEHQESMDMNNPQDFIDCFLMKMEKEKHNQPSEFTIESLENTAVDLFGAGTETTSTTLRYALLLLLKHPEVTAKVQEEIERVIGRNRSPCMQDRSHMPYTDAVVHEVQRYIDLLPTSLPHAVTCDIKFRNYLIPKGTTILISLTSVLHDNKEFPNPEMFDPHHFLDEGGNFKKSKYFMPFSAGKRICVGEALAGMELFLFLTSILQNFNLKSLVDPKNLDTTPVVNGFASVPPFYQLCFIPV", "experiment": "CYP inhibition screening, CYP2C9", "format": "in vitro ADME"}, "[5]": {"settings": "PAMPA"}, "[6]": {"tested_on": "cleavage of the amyloid precursor protein (APP)", "experiment": "OGD in primary cortical neurons, APP cleavage (immunoblot)", "format": "cell-based", "method": "as §4\nDepriving cells of oxygen and glucose is a cellular model that is employed to trigger acidosis in cultured cells. The efficacy of the compounds in a cellular model of oxygen-glucose deprivation (OGD) was determined in an effort to mimic the effects of stroke in primary cultured neurons. As a result of depriving neurons of oxygen and glucose-containing medium, AEP activity was doubled (FIG. 7A, ‘DMSO-Norm’ compared to ‘DMSO-OGD’), while Caspase-3 and Cathepsin activities remained relatively unchanged. […] Cleavage of APP is observed in response to only DMSO treatment (FIG. 7D, lane 2), and it appears that upon the treatment of 1 μM of compounds 10, 11, and 12, and just 0.1 μM of compounds 31, 38 and 64, the cleavage was blocked, presumably due to AEP inhibition.\nCompounds were pre-incubated with primary culture neurons, DIV13, for 30 min. The medium was exchanged for glucose-free DMEM and neurons were de-gased and incubated at 37° C., 95% N2/5% CO2 for 4 hrs with compounds. The medium was exchanged for DMEM and supplemented with compounds, then neurons were reperfused for 18 hrs under normoxic conditions. The neuronal lysates were prepared for AEP, Caspase-3 and Cathepsin assays. Moreover, immunoblotting analysis was conducted with the neuronal lysates using anti-APP, anti-AEP antibodies."}}, "note": "Read-outs that look alike come from different tables or passages of the source."}
{"smiles": "CC(=O)CC(c1ccccc1)c1c(O)c2ccccc2oc1=O", "note": "(centres unmarked) [Warfarin]", "values": [{"measurement": "Mean Remaining Parent (with NADPH)", "setting": "[1]; 0.5 h", "value": 96, "unit": "%"}, {"measurement": "Mean Remaining Parent (NADPH-free)", "setting": "[1]; 30 min", "value": 104, "unit": "%"}, {"measurement": "Mean Remaining Parent (NADPH-free)", "setting": "[2]", "value": 100, "unit": "%"}, {"measurement": "Mean Remaining Parent (with NADPH)", "setting": "[2]", "value": 91, "unit": "%"}]}
{"smiles": "CN(C)c1ccc(N2C(=O)C=CC2=O)cc1", "note": "[Compound 22]", "values": [{"measurement": "IC50", "setting": "Cathepsin-S", "value": "> 100", "unit": "µM"}, {"measurement": "genotoxicity (COMET and micronucleus assays)", "setting": "HepG2 cells", "value": "the only test compound to show genotoxicity"}, {"measurement": "IC50", "setting": "Caspase-3", "value": "> 100", "unit": "µM"}, {"measurement": "IC50", "setting": "Cathepsin-L", "value": "> 100", "unit": "µM"}, {"measurement": "IC50", "setting": "Caspase-8", "value": "> 100", "unit": "µM"}]}
{"smiles": "Cc1cccc(NCc2ccc(O)c3ncccc23)c1C", "note": "[Compound 12]", "values": [{"measurement": "A -> B Papp", "setting": "Caco-2 monolayer", "value": "1.4 10^−6 cm · s^−1"}, {"measurement": "B -> A Papp", "setting": "Caco-2 monolayer", "value": "3.7 10^−6 cm · s^−1"}, {"measurement": "RE", "setting": "Caco-2 monolayer", "value": 2.7}, {"measurement": "Mean Remaining Parent (NADPH-free)", "setting": "[3]", "value": 0, "unit": "%"}, {"measurement": "Mean Remaining Parent (with NADPH)", "setting": "[3]", "value": 1, "unit": "%"}, {"measurement": "CYP inhibition, CYP3A-Testosterone", "setting": "CYP3A; test concentration 3 μM", "value": 14.2, "unit": "%"}, {"measurement": "CYP inhibition, CYP3A-Testosterone", "setting": "CYP3A; test concentration 10 μM", "value": 27.6, "unit": "%"}, {"measurement": "CYP inhibition, CYP3A4-Midazolam", "setting": "CYP3A4; test concentration 3 μM", "value": "−2.5", "unit": "%"}, {"measurement": "CYP inhibition, CYP3A4-Midazolam", "setting": "CYP3A4; test concentration 10 μM", "value": "−2.5", "unit": "%"}, {"measurement": "CYP inhibition, CYP1A2", "setting": "CYP1A2; test concentration 3 μM", "value": 28.4, "unit": "%"}, {"measurement": "CYP inhibition, CYP1A2", "setting": "CYP1A2; test concentration 10 μM", "value": 44.5, "unit": "%"}, {"measurement": "CYP inhibition, CYP2D6", "setting": "CYP2D6; test concentration 3 μM", "value": 2.9, "unit": "%"}, {"measurement": "CYP inhibition, CYP2D6", "setting": "CYP2D6; test concentration 10 μM", "value": "−2.6", "unit": "%"}, {"measurement": "CYP inhibition, CYP2C19", "setting": "CYP2C19; test concentration 3 μM", "value": 13.4, "unit": "%"}, {"measurement": "CYP inhibition, CYP2C19", "setting": "CYP2C19; test concentration 10 μM", "value": 29.4, "unit": "%"}, {"measurement": "AEP activity in OGD-treated neurons", "setting": "AEP", "value": "slight decrease"}, {"measurement": "Mean Remaining Parent (NADPH-free)", "setting": "[4]", "value": 1, "unit": "%"}, {"measurement": "Mean Remaining Parent (with NADPH)", "setting": "[4]; 30 min of incubation", "value": 1, "unit": "%"}, {"measurement": "CYP inhibition, CYP2C9", "setting": "CYP2C9; test concentration 3 μM", "value": 4.3, "unit": "%"}, {"measurement": "CYP inhibition, CYP2C9", "setting": "CYP2C9; test concentration 10 μM", "value": "−2.7", "unit": "%"}, {"measurement": "Pe", "setting": "[5]", "value": "<LLOQ"}, {"measurement": "dose dependence of APP cleavage after OGD", "setting": "[6]", "value": "dose-dependent decrease"}, {"measurement": "cleavage of APP after OGD", "setting": "[6]; 1 μM compound", "value": "blocked"}]}
